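Following 48 hours of exposure in 96-well plates, responses at five concentrations were used to interpolate endpoints linearly. At the GI50, growth is halved.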 Active and inactive are the calls of the source. No stated cut-off is given here; in the data, active = GI50 up to about 1.1 µM and inactive = higher.
How the values were obtained:
Test in all cases: NCI tumour cell line growth inhibition, 48 h
HCC 2998 = test system: HCC 2998
NCI/ADR-RES = test system: NCI/ADR-RES
RPMI-8226 = test system: RPMI-8226
HT-29 = test system: HT-29
UO-31 = test system: UO-31
KM12 = test system: KM12
IGROV-1 = test system: IGROV-1
CCRF-CEM = test system: CCRF-CEM
MOLT-4 = test system: MOLT-4
RXF 393 = test system: RXF 393
ACHN = test system: ACHN
OVCAR-4 = test system: OVCAR-4
UACC-257 = test system: UACC-257
COLO 205 = test system: COLO 205
NCI-H522 = test system: NCI-H522
A498 = test system: A498
SF-539 = test system: SF-539
CAKI-1 = test system: CAKI-1
NCI-H460 = test system: NCI-H460
M14 = test system: M14

| Structure (SMILES) | GI50 (HCC 2998) | GI50 (NCI/ADR-RES) | GI50 (RPMI-8226) | GI50 (HT-29) | GI50 (UO-31) | GI50 (KM12) | GI50 (IGROV-1) | GI50 (CCRF-CEM) | GI50 (MOLT-4) | GI50 (RXF 393) | GI50 (ACHN) | GI50 (OVCAR-4) | GI50 (UACC-257) | GI50 (COLO 205) | GI50 (NCI-H522) | GI50 (A498) | GI50 (SF-539) | GI50 (CAKI-1) | GI50 (NCI-H460) | GI50 (M14) |
| --- | --- | --- | --- | --- | --- | --- | --- | --- | --- | --- | --- | --- | --- | --- | --- | --- | --- | --- | --- | --- |
| Clc1ccc(C(c2ccccc2Cl)C(Cl)Cl)cc1 (configuration not stated) [MITOTANE] | 12.7 µM (inactive) | 15.3 µM (inactive) | 14.5 µM (inactive) | 16.8 µM (inactive) | 16.9 µM (inactive) | 16 µM (inactive) | 13.9 µM (inactive) | 17.7 µM (inactive) | 14.7 µM (inactive) | 11.6 µM (inactive) | 14.8 µM (inactive) | 16 µM (inactive) | 19.4 µM (inactive) | 17.3 µM (inactive) | 16.7 µM (inactive) | 20.2 µM (inactive) | 17.1 µM (inactive) | 13.1 µM (inactive) | 17.3 µM (inactive) | 19.3 µM (inactive) |
| CC1=C(O)C(=O)c2ccccc2C1=O | > 100 µM (inactive) | > 100 µM (inactive) | 18.6 µM (inactive) | 56.1 µM (inactive) | 21.5 µM (inactive) | 23 µM (inactive) | 80.4 µM (inactive) | > 100 µM (inactive) | > 100 µM (inactive) | 34.8 µM (inactive) | 58.7 µM (inactive) | > 100 µM (inactive) | 47.3 µM (inactive) | > 100 µM (inactive) | 47.9 µM (inactive) | > 100 µM (inactive) | > 100 µM (inactive) | > 100 µM (inactive) | 43.6 µM (inactive) | 16.9 µM (inactive) |
| NCC1CCN(c2nc3ccccc3c3c2CCCC3)CC1 | 1.9 µM (inactive) | 12.9 µM (inactive) | 2.31 µM (inactive) | 2.42 µM (inactive) | 5.6 µM (inactive) | 4.28 µM (inactive) | 8.85 µM (inactive) | 2.87 µM (inactive) | 3.59 µM (inactive) | 2.75 µM (inactive) | 12.6 µM (inactive) | 10.5 µM (inactive) | 2.68 µM (inactive) | 1.61 µM (inactive) | 6.22 µM (inactive) | 12.4 µM (inactive) | 4.65 µM (inactive) | 8.61 µM (inactive) | 5.06 µM (inactive) | 1.92 µM (inactive) |
| O=[N+]([O-])c1ccc(N/N=C/CC(O)(C(F)(F)F)C(F)(F)F)c([N+](=O)[O-])c1 | 5.32 µM (inactive) | 3.68 µM (inactive) | 2.76 µM (inactive) | 4.38 µM (inactive) | 3.06 µM (inactive) | 4.82 µM (inactive) | 4.47 µM (inactive) | 3.99 µM (inactive) | 3.78 µM (inactive) | 5.35 µM (inactive) | 3.52 µM (inactive) | 4.99 µM (inactive) | 3.65 µM (inactive) | 3.67 µM (inactive) | 3.21 µM (inactive) | 3.78 µM (inactive) | 2.3 µM (inactive) | 3.15 µM (inactive) | 2.97 µM (inactive) | > 10 µM (inactive) |
| Cc1cc(S(=O)(=O)Nc2nc(Nc3ccc(Cl)cc3)n[nH]2)c(S)cc1Cl | > 100 µM (inactive) | > 100 µM (inactive) | > 100 µM (inactive) | 81.1 µM (inactive) | 79.1 µM (inactive) | 31.6 µM (inactive) | 70.5 µM (inactive) | > 100 µM (inactive) | > 100 µM (inactive) | > 100 µM (inactive) | 37.9 µM (inactive) | > 100 µM (inactive) | > 100 µM (inactive) | 79.3 µM (inactive) | 70.5 µM (inactive) | > 100 µM (inactive) | > 100 µM (inactive) | 36 µM (inactive) | 86.9 µM (inactive) | 59.6 µM (inactive) |
| O=C(N/N=C(COc1ccc([N+](=O)[O-])cc1)\N=C\c1ccncc1)c1ccncc1 | > 100 µM (inactive) | > 100 µM (inactive) | > 100 µM (inactive) | > 100 µM (inactive) |  | > 100 µM (inactive) | > 100 µM (inactive) | > 100 µM (inactive) | > 100 µM (inactive) | > 100 µM (inactive) | > 100 µM (inactive) | > 100 µM (inactive) | > 100 µM (inactive) | > 100 µM (inactive) | > 100 µM (inactive) | > 100 µM (inactive) | > 100 µM (inactive) | > 100 µM (inactive) | > 100 µM (inactive) | > 100 µM (inactive) |
| O=[N+]([O-])c1c(F)c(F)c2c(c1F)N(CCCCCl)c1ccccc1S2 | 2.86 µM (inactive) | 17.5 µM (inactive) | 3.47 µM (inactive) | 2.54 µM (inactive) | 16.9 µM (inactive) | 10.5 µM (inactive) | 2.27 µM (inactive) | 2.38 µM (inactive) | 2.77 µM (inactive) | 13.8 µM (inactive) | 16.5 µM (inactive) | 8.57 µM (inactive) | 11.4 µM (inactive) | 14.4 µM (inactive) | 4.9 µM (inactive) | 8.81 µM (inactive) | 17.2 µM (inactive) | 6.98 µM (inactive) | 5.01 µM (inactive) | 4.83 µM (inactive) |
| Cn1c(=O)cc(/N=N\c2ccc(Cl)c(Cl)c2)[nH]c1=O | 56.8 µM (inactive) | 34.2 µM (inactive) | 28.3 µM (inactive) | 19.9 µM (inactive) | > 100 µM (inactive) | > 100 µM (inactive) | 33 µM (inactive) | 24.2 µM (inactive) | 28.6 µM (inactive) | 23.3 µM (inactive) | 21.2 µM (inactive) | 27.7 µM (inactive) | 33.5 µM (inactive) | 22.2 µM (inactive) | 25.6 µM (inactive) | > 100 µM (inactive) | > 100 µM (inactive) | 13.4 µM (inactive) | 29.9 µM (inactive) | 20.3 µM (inactive) |
| O=C(O)CC(NC(=O)Nc1ccc([N+](=O)[O-])cc1)C(=O)Nc1ccc([N+](=O)[O-])cc1 (configuration not stated) | > 100 µM (inactive) | > 100 µM (inactive) | > 100 µM (inactive) | > 100 µM (inactive) | > 100 µM (inactive) | > 100 µM (inactive) | > 100 µM (inactive) | > 100 µM (inactive) | > 100 µM (inactive) | > 100 µM (inactive) | > 100 µM (inactive) | > 100 µM (inactive) | > 100 µM (inactive) | > 100 µM (inactive) | > 100 µM (inactive) | > 100 µM (inactive) | > 100 µM (inactive) | > 100 µM (inactive) | > 100 µM (inactive) | > 100 µM (inactive) |
| COc1ccc(/C=C2/C(=O)C(c3ccccc3)N(c3ccccc3)C2=O)cc1OC (configuration not stated) | > 10 µM (inactive) | > 10 µM (inactive) | > 10 µM (inactive) | > 10 µM (inactive) | > 10 µM (inactive) | > 10 µM (inactive) | 0.975 µM (active) | > 10 µM (inactive) | > 10 µM (inactive) | > 10 µM (inactive) | > 10 µM (inactive) | > 10 µM (inactive) | > 10 µM (inactive) | > 10 µM (inactive) | > 10 µM (inactive) | 1.41 µM (inactive) | > 10 µM (inactive) | > 10 µM (inactive) | > 10 µM (inactive) | > 10 µM (inactive) |
| CC12c3c4cccc3Oc3cc(N)cc(c31)Oc1cc(N)cc(c12)O4 | 4.61 µM (inactive) | 0.953 µM (active) | 5.93 µM (inactive) | 2.01 µM (inactive) | 17.7 µM (inactive) | 4.26 µM (inactive) | 3.44 µM (inactive) | 0.736 µM (active) | 5.13 µM (inactive) | 0.408 µM (active) | 11.1 µM (inactive) | 10.4 µM (inactive) | 5.71 µM (inactive) | 3.29 µM (inactive) | 2.24 µM (inactive) | 2.74 µM (inactive) | 2.96 µM (inactive) | 9.86 µM (inactive) | 3.48 µM (inactive) | 4.55 µM (inactive) |
| O=C(Nc1cc(C(=O)Nc2cccc(S(=O)(=O)O)c2)cc(C(=O)Nc2cccc(S(=O)(=O)O)c2)c1)c1cccc(C(=O)Nc2cc(C(=O)Nc3cccc(S(=O)(=O)O)c3)cc(C(=O)Nc3cccc(S(=O)(=O)O)c3)c2)c1 | > 100 µM (inactive) | > 100 µM (inactive) | > 100 µM (inactive) | > 100 µM (inactive) | > 100 µM (inactive) | 30.7 µM (inactive) | > 100 µM (inactive) | > 100 µM (inactive) | > 100 µM (inactive) | > 100 µM (inactive) | > 100 µM (inactive) | > 100 µM (inactive) | > 100 µM (inactive) | > 100 µM (inactive) | > 100 µM (inactive) | 84.7 µM (inactive) | > 100 µM (inactive) | > 100 µM (inactive) | > 100 µM (inactive) | 97.1 µM (inactive) |
| O=C(Nc1nc2ccccc2s1)c1cc([N+](=O)[O-])ccc1Cl | 12.6 µM (inactive) | 6.89 µM (inactive) | 4.81 µM (inactive) | 5.47 µM (inactive) | 6.76 µM (inactive) | 3.29 µM (inactive) |  | 0.0107 µM (active) | 2.81 µM (inactive) | 2.65 µM (inactive) | 17 µM (inactive) | 8.39 µM (inactive) | 42.2 µM (inactive) | 19.6 µM (inactive) | 3.4 µM (inactive) | > 81.7 µM (inactive) | 4.73 µM (inactive) | 37.6 µM (inactive) | 1.91 µM (inactive) | 8.97 µM (inactive) |
| CC(C)C1CC(CO)(CNc2cc(Cl)nc(N)n2)C1 (configuration not stated) | 34.8 µM (inactive) | 16.8 µM (inactive) | 11.8 µM (inactive) | > 100 µM (inactive) | 54 µM (inactive) | > 100 µM (inactive) | > 100 µM (inactive) | 75.7 µM (inactive) | > 10 µM (inactive) | 19.7 µM (inactive) | > 100 µM (inactive) | 20.7 µM (inactive) | 1.15 µM (inactive) | > 100 µM (inactive) | 39 µM (inactive) | 4.49 µM (inactive) | 73.8 µM (inactive) | > 100 µM (inactive) | 30.9 µM (inactive) |  |
